Experimental data reported in patent publication US9598396B2, “Tetrahydrophenanthridinones and tetrahydrocyclopentaquinolinones as PARP and tubulin polymerization inhibitors” (Janssen Pharmaceutica NV, priority 2008, dated 2017).

Columns and labels:
[1] = target: Human PARP-1 enzyme (Homo sapiens (Human), UniProt P09874); test: In vitro Scintillation Proximity Assay (SPA) for PARP-1 inhibitory activity; assay type: biochemical; conditions: nicked DNA activated PARP-1, [3H]-NAD+, biotinylated histones
Human PARP-1 enzyme, sequence (P09874 whole entry): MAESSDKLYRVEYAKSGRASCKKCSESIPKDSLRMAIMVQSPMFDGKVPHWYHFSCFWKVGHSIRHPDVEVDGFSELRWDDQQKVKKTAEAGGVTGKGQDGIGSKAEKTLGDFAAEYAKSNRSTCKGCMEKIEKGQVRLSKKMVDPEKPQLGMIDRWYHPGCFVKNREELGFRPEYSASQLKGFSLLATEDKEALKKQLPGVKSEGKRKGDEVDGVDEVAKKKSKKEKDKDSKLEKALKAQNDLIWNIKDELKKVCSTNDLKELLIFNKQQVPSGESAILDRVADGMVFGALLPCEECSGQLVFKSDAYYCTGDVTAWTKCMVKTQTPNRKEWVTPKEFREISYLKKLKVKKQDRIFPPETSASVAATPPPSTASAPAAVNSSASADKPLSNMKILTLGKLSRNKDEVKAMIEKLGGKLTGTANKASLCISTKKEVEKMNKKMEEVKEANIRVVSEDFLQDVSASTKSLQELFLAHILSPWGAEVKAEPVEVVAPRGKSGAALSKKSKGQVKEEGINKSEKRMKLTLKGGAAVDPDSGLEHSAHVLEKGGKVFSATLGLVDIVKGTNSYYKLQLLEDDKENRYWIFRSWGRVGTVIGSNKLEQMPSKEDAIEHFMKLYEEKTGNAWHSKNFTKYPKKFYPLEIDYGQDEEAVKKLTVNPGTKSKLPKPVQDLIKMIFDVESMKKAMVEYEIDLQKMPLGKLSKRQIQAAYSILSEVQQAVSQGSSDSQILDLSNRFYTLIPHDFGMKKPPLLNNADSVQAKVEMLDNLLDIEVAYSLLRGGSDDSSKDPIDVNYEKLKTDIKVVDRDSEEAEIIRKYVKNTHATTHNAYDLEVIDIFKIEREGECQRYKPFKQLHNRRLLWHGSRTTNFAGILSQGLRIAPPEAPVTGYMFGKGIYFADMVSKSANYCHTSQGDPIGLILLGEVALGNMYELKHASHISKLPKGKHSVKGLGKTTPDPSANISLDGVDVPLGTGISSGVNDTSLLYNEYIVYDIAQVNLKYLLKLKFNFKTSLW
Procedure: C.1.In Vitro Scintillation Proximity Assay (SPA) for PARP-1 Inhibitory Activity
Compounds of the present invention were tested in an in vitro assay based on SPA technology (proprietary to GE healthcare).
In principle, the assay relies upon the well established SPA technology for the detection of poly(ADP-ribosyl)ation of biotinylated target proteins, i.e histones. This ribosylation is induced using nicked DNA activated PARP-1 enzyme and [^3H]-nicotinamide adenine dinucleotide ([^3H]-NAD^+) as ADP-ribosyl donor.
Histones (type II-A, supplier: Sigma) were biotinylated using the biotinylation kit of Amersham and stored aliquoted at −20° C. A stock solution of 100 mg/ml SPA poly(vinyl toluene) (PVT) beads (supplier: Amersham) was made in PBS. A stock solution of 61.6 nM […] was made by adding [^3H]-NAD^+ (0.1 mCi/ml, supplier: Perkin Elmer) to incubation buffer (50 mM Tris/HCl, pH 8; 0.2 mM DTT; 4 mM MgCl2). A solution of 4 mM NAD^+ (supplier: Sigma) was made. Human PARP-1 enzyme was obtained from Trevigen. Biotinylated histones and PVT-SPA beads were mixed and pre-incubated for 30 minutes at room temperature. PARP-1 enzyme (concentration was lot dependent) was mixed with the nicked DNA and the mixture was pre-incubated for 30 minutes at 4° C. Equal parts of this histones/PVT-SPA beads solution and PARP-1 enzyme/DNA solution were mixed and 75 μl of this mixture together with 1 μl of compound in DMSO and 25 μl of [^3H]-NAD^+was added per well into a 96-well microtiterplate. The final concentrations in the incubation mixture were 2 μg/ml for the biotinylated histones, 2 mg/ml for the PVT-SPA beads, 0.25 μg/ml for the nicked DNA and between 0.1-0.2 μg/ml for the PARP-1 enzyme. After incubation of the mixture for 20 minutes at room temperature, the reaction was terminated by adding 100 μl of 4 mM NAD^+ in water (final concentration 2 mM) and plates were mixed. The beads were sedimented by centrifugation (10 min, 800 rpm) and plates transferred to a TopCountNXT™ (Packard) for scintillation counting, values were expressed as counts per minute (cpm). For each experiment, controls (containing PARP-1 enzyme and DMSO without compound), a blank incubation (containing DMSO but no PARP-1 enzyme, no DNA or compound) and samples (containing PARP-1 enzyme, DNA and compound dissolved in DMSO) were run in parallel. All compounds tested were dissolved and eventually further diluted in DMSO. A dose-response curve was made wherein the compounds were tested at concentrations between 10^−5M and 3×10^−9M. In each test, the blank value was subtracted from both the control and the sample values. The control sample represented maximal PARP-1 enzyme activity. For each sample, the amount of cpm was expressed as a percentage of the mean cpm value of the controls. […] Herein the effects of test compounds are expressed as pIC50 (the negative log value of the IC50-value). As a reference compound, 4-amino-1,8-naphthalimide was included to validate the SPA assay.

[2] = tested on: Human colon carcinoma HCT116 cells; test: Detection of antiproliferative activity (Alamar Blue assay); assay type: cell-based; conditions: HCT-116, 96 h, 4-day incubation, read-out: Cellular assay HCT116 pIC50 (converted)
Procedure: Example C.4 Detection of Antiproliferative Activity
Human colon carcinoma HCT116 cells obtained from the ATCC were cultured in McCoy's 5A medium supplemented with 2 mM L-Glutamine, 50 μg/ml gentamicin and 10% heat inactivated fetal calf serum.
Reagents used in the Alamar Blue Assay
Resazurin was purchased from Aldrich (Prod. No. 199303). Potassium ferrocyanide, potassium ferricyanide, KH2PO4 and K2HPO4 were purchased from Sigma (Prod. Nos. P9387, P8131, P5655 and P8281, respectively).
Potassium Phosphate Buffer 0.1 M (PPB) was made as follows: 2.72 gram KH2PO4 and 13.86 gram K2HPO4 were dissolved in 500 ml milli-Q H2O, the pH was adjusted to pH 7.4 and the volume was brought to 1 liter with milli-Q H2O; the buffer was filter sterilised and stored at room temperature. Resazurin stock solution (PPB-A) was prepared fresh by dissolving 45 mg resazurin in 15 ml PBS. 30 mM potassium ferricyanide (PPB-B) was prepared by dissolving 0.987 gram potassium ferricyanide in 100 ml PPB. 30 mM potassium ferrocyanide (PPB-C) was prepared by dissolving 1.266 gram potassium ferrocyanide in 100 ml PPB.
Mixture of PPB-A, PPB-B and PPB-C was prepared by mixing equal volumes of the respective solutions. Resazurin work solution (herein termed “Alamar Blue” solution) was prepared by diluting said mixture 20× (vol/vol) in PPB and filter sterilising; the Alamar Blue solution could be kept at 4° C. for a maximum of 2 weeks.
Procedure of the Alamar Blue Assay
For experiments in 384 wells plates the cells were seeded at a density of 4.5×10^3 cells/ml in Falcon 384-well culture plates (Life Technologies, Merelbeke, Belgium), black with clear bottom, in 45 μl culture medium. Cells were allowed to adhere to plastic for 24 hours. The tested compound was pre-diluted (1/50 in culture medium) and 5 μl pre-diluted compound was added to the wells. Following 4-day incubation, 10 μl of the Alamar Blue solution was added to each well and the cells were further incubated for 4 hours (HCT116) or 24 hours (PC-3) at 37° C. The fluorescence intensity was measured for each well on a Fluorescence plate reader (Fluorskan, Labsystems, 540 nm excitation and 590 nm emission)
The antiproliferative activity was calculated as percentage of remaining viable cells in treated versus control (untreated cells) conditions. Within an experiment, the result for each experimental condition is the mean of 3 replicate wells. When appropriate, the experiments were repeated to establish full concentration-response curves. […] Herein the effects of tested compounds are expressed as pIC50 (the negative log value of the IC50 value) (see Table 3).

in vitro SPA assay PARP-1 pIC50 [1] | IC50 [2] [nM] | Compound
9.03 | 148 | CC(C#N)(Cc1cccc(C#N)c1)c1ccc2c3c(c(=O)[nH]c2c1)CCCC3 (stereo not drawn) [Co. No. 4]
8.38 | 58.9 | CC(C#N)(Cc1cccc(C#N)n1)c1ccc2c3c(c(=O)[nH]c2c1)CCCC3 (stereo not drawn) [Co. No. 7]
7.08 | 155 | CC(C#N)(Cc1cccc(Cl)c1)c1ccc2c3c(c(=O)[nH]c2c1)CCCC3 (stereo not drawn) [Co. No. 8]

The remaining lines, values behind:

Compound | in vitro SPA assay PARP-1 pIC50 [1] | IC50 [2] [nM]
CC(C#N)(Cc1ccccc1)c1ccc2c3c(c(=O)[nH]c2c1)CCCC3 (stereo not drawn) [Co. No. 1] | 7.44 | 355
CC(C#N)(Cc1cccc(F)c1)c1ccc2c3c(c(=O)[nH]c2c1)CCCC3 (stereo not drawn) [Co. No. 5] | 9.01 | 282
CC(C#N)(CCOc1ccc(C#N)cc1)c1ccc2c3c(c(=O)[nH]c2c1)CCCC3 (stereo not drawn) [Co. No. 17] | 7.35 | 204
